The series in a line: Solubility of the compound at pH 6.8. The class given is physicochemical. The note with it: buffer.

Converted amounts (≈) assume the structure as drawn.

In the case of `C[C@@H](c1ccc(Cl)cc1)N1Cc2cncn2C(CC(C)(C)O)S1(=O)=O` (some centres not stated), the solubility was 500 µM (≈ 192 µg/mL). Turning to `CC(C)CC1n2cncc2CN(Cc2ccc(F)cc2)S1(=O)=O` (configuration not stated), the solubility is < 0.5 µM.

Broadly, the solubility is how much of the substance goes into solution per volume.

The values are drawn from ChEMBL document CHEMBL1208751 (Bioorg Med Chem Lett, 2010).
